ChEMBL document CHEMBL1201862, “PubChem BioAssay data set” (2004)
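Exposure lasted 48 hours, with cells grown in 96-well plates and compounds tested at five concentrations. GI50 is the concentration that inhibits growth by half.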 Active and inactive are the calls of the source. Rule as the data show it: active = GI50 up to about 1.1 µM and inactive = higher.

Columns and labels:
Assay in all cases: growth of human tumour cells (NCI), 48 h
[1] = tested on: UACC-62
[2] = tested on: NCI-H23
[3] = tested on: NCI-H522
[4] = tested on: SNB-19
[5] = tested on: OVCAR-4
[6] = tested on: SNB-75
[7] = tested on: HT-29
[8] = tested on: HCC 2998
[9] = tested on: 786-0
[10] = tested on: SK-MEL-28
[11] = tested on: RPMI-8226
[12] = tested on: HOP-62
[13] = tested on: UACC-257
[14] = tested on: LOX IMVI
[15] = tested on: SF-295
[16] = tested on: NCI-H226
[17] = tested on: EKVX
[18] = tested on: A498

Measured: GI50

COc1cc(C=C2C(=O)NC(=O)NC2=O)cc(OC)c1OC
inactive: [1] > 100 µM | [2] > 100 µM | [3] > 100 µM | [4] > 100 µM | [5] > 100 µM | [6] 80.2 µM | [7] > 100 µM | [8] > 100 µM | [9] > 100 µM | [10] > 100 µM | [11] > 100 µM | [12] > 100 µM | [13] > 100 µM | [14] > 100 µM | [15] > 100 µM | [16] > 100 µM | [17] > 100 µM

CCOC(=O)C(C(CC(=O)OC)NC(=O)OCc1ccccc1)C1(C)OCCO1 (configuration not stated)
inactive: [1] > 100 µM | [2] > 100 µM | [4] > 100 µM | [5] > 100 µM | [6] 41.1 µM | [7] > 100 µM | [18] > 100 µM | [8] > 100 µM | [9] > 100 µM | [10] > 100 µM | [11] > 100 µM | [12] > 100 µM | [13] > 100 µM | [14] > 100 µM | [15] > 100 µM | [16] > 100 µM | [17] > 100 µM

CCCCN(CCCC)C(=Nc1ccccc1)N(CCCC)CCCC
inactive: [2] 2.19 µM | [3] 2.17 µM | [4] 6.81 µM | [6] 16.4 µM | [7] 2.36 µM | [18] 9.62 µM | [8] 4.32 µM | [9] 3.3 µM | [10] 3.1 µM | [11] 1.8 µM | [12] 6.87 µM | [13] 7.41 µM | [14] 3.15 µM | [15] 5.38 µM | [17] 4.35 µM

NS(=O)(=O)c1ccccc1C(=O)N/N=C(\c1nc2ccc([N+](=O)[O-])cc2[nH]c1=O)C(O)c1ccc([N+](=O)[O-])cc1 (configuration not stated)
inactive: [1] 52.2 µM | [2] > 100 µM | [3] 10.6 µM | [4] > 100 µM | [5] > 100 µM | [6] > 100 µM | [7] > 100 µM | [18] > 100 µM | [8] > 100 µM | [9] > 100 µM | [10] > 100 µM | [11] 58.5 µM | [13] > 100 µM | [14] 84.1 µM | [15] > 100 µM | [16] > 100 µM | [17] > 100 µM

O=C(c1ccccc1)C1S(=O)(=O)OCCOS1(=O)=O
inactive: [1] > 100 µM | [2] > 100 µM | [3] > 100 µM | [4] > 100 µM | [5] > 100 µM | [6] > 100 µM | [7] > 100 µM | [8] > 100 µM | [9] > 100 µM | [10] > 100 µM | [11] > 100 µM | [12] > 100 µM | [13] > 100 µM | [14] > 100 µM | [15] > 100 µM | [17] > 100 µM

Cc1ccc(NC(=O)OCC(COc2ccc(Cl)cc2Cl)OC(=O)Nc2ccc(C)cc2)cc1 (configuration not stated)
inactive: [1] > 100 µM | [2] > 100 µM | [4] 47.6 µM | [5] 33.2 µM | [6] 27 µM | [7] > 100 µM | [18] > 100 µM | [8] > 100 µM | [9] 64.6 µM | [10] > 100 µM | [11] > 100 µM | [12] > 100 µM | [13] > 100 µM | [15] > 100 µM | [16] 46.3 µM | [17] > 100 µM

CC(=O)OCCOCBr
inactive: [1] > 100 µM | [3] > 100 µM | [5] > 100 µM | [6] > 100 µM | [7] > 100 µM | [18] > 100 µM | [9] > 100 µM | [10] > 100 µM | [11] > 100 µM | [12] > 100 µM | [13] > 100 µM | [14] > 100 µM | [15] > 100 µM | [16] > 100 µM | [17] > 100 µM

CCOC(=O)CC(=O)Sc1ccccc1
inactive: [1] 16 µM | [2] 24.5 µM | [3] 11.8 µM | [4] 28.2 µM | [5] 37.7 µM | [7] 22.7 µM | [18] 15.8 µM | [8] 23.9 µM | [9] 19.1 µM | [10] 14.6 µM | [11] 17.7 µM | [12] 27.1 µM | [13] 28.1 µM | [14] 12.8 µM | [15] 29.6 µM | [16] 27.2 µM | [17] 19 µM

COc1ccccc1NC(=O)CC(=O)n1nc(C)c(/N=N/c2ccccc2C(=O)O)c1C
inactive: [1] 59.7 µM | [2] 88.9 µM | [3] 43.9 µM | [4] > 100 µM | [5] > 100 µM | [6] 32.1 µM | [7] > 100 µM | [18] 90.4 µM | [8] > 100 µM | [9] > 100 µM | [10] > 100 µM | [11] > 100 µM | [12] 85.9 µM | [13] > 100 µM | [14] > 100 µM | [15] > 100 µM | [17] 29.6 µM

O=C1C2c3[nH]c4ccccc4c3C3CCCCCCC3C2C(=O)N1c1ccccc1 (configuration not stated)
inactive: [1] 32.9 µM | [2] 21 µM | [5] 3.87 µM | [6] 2.23 µM | [7] 19.9 µM | [18] 15.5 µM | [8] 12.3 µM | [9] 8.67 µM | [10] 14.6 µM | [11] 13.4 µM | [14] 5 µM | [15] 2.91 µM | [17] 24.9 µM

Cc1ccc(/C=N/NS(=O)(=O)c2ccccc2)cc1C
inactive: [1] 98.9 µM | [2] > 100 µM | [5] > 100 µM | [6] > 100 µM | [7] > 100 µM | [18] 59.4 µM | [8] > 100 µM | [9] > 100 µM | [10] > 100 µM | [11] > 100 µM | [12] > 100 µM | [13] > 100 µM | [14] 88.1 µM | [15] 45.7 µM | [16] > 100 µM | [17] > 100 µM

CC(=O)OCCC(O[Si](c1ccccc1)(c1ccccc1)C(C)(C)C)C(C)(C)O (configuration not stated)
inactive: [1] 53.8 µM | [2] 24.7 µM | [3] 20 µM | [4] 63.1 µM | [5] 64.1 µM | [6] 35.6 µM | [7] 27.4 µM | [18] > 100 µM | [9] 27.4 µM | [10] 51.2 µM | [11] 23.9 µM | [13] 26.5 µM | [14] 24 µM | [15] 21.6 µM | [16] 19.5 µM | [17] 48.4 µM

CCCCCOCC(O)CO (configuration not stated)
inactive: [1] > 100 µM | [2] > 100 µM | [4] > 100 µM | [5] > 100 µM | [18] > 100 µM | [9] > 100 µM | [10] > 100 µM | [12] > 100 µM | [13] > 100 µM | [14] > 100 µM | [15] > 100 µM | [16] > 100 µM | [17] > 100 µM

O=C(CC1(O)C(=O)Nc2ccccc21)c1ccc(Cl)cc1Cl (configuration not stated)
inactive: [1] > 100 µM | [2] > 100 µM | [3] > 100 µM | [4] > 100 µM | [5] > 100 µM | [6] > 100 µM | [7] > 100 µM | [18] > 100 µM | [9] > 100 µM | [10] > 100 µM | [11] > 100 µM | [13] > 100 µM | [14] > 100 µM | [15] > 100 µM | [16] 71.6 µM | [17] > 100 µM

N#CC(C(=O)CCC(=O)Nc1ccc(Cl)c(Cl)c1)c1ccc(Cl)cc1 (configuration not stated)
inactive: [1] 11.6 µM | [2] > 100 µM | [4] > 100 µM | [5] > 100 µM | [6] 51.1 µM | [7] > 100 µM | [18] > 100 µM | [8] > 100 µM | [9] > 100 µM | [10] > 100 µM | [11] 48.2 µM | [12] > 100 µM | [13] > 100 µM | [14] > 100 µM | [15] 69.5 µM | [16] > 100 µM | [17] > 100 µM

O=C1C2CCC(C2)C12CC1(c3ccccc3)C(=O)c3ccccc3N1O2 (configuration not stated)
inactive: [1] 91.8 µM | [2] > 100 µM | [3] > 100 µM | [4] > 100 µM | [5] 75.5 µM | [6] > 100 µM | [7] > 100 µM | [18] > 100 µM | [8] > 100 µM | [9] > 100 µM | [10] > 100 µM | [11] 58.9 µM | [12] > 100 µM | [13] > 100 µM | [15] 94.6 µM | [16] > 100 µM | [17] > 100 µM

CC(=O)OC(C[C@H](C)[C@@H]1CC[C@]2(C)C3=CCC4C(C)(C)C(=O)CC[C@]4(C)C3CCC12C)C1OC1(C)C (some centres not stated)
inactive: [1] 23.4 µM | [2] 20.5 µM | [3] 12.9 µM | [4] 39.6 µM | [5] 28 µM | [7] 15.7 µM | [18] 17.1 µM | [8] 16.4 µM | [9] 19.7 µM | [10] 27.3 µM | [11] 16.7 µM | [12] 20.4 µM | [13] 20.3 µM | [14] 27.9 µM | [15] 22.7 µM | [16] 13.6 µM | [17] 32.7 µM
